Legend:
[1] = target: T1, K-Ras G12D (Homo sapiens, UniProt P01116, G12D); test: HTRF resonance energy transfer assay, K-Ras G12D / SOS1 interaction; type: biochemical; conditions: HTRF assay of Example 5; read-out: IC50 against K-Ras G12D
T1 construct: made in house; host or cells: E. coli BL21 (DE3)
Procedure, shortened: (§1)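 Buffer about 5 mM HEPES pH 7.4 with ~150 mM NaCl, ~1 mM DTT, 0.05% BSA, 0.0025% (v/v) Igepal. Protein constructs used at molarity matching the IC50 range studied (e.g. ~500 nM). FRET between tagged K-Ras and hSOS1 measured after short incubation.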

[2] = target: T2, K-Ras G12S (Homo sapiens, UniProt P01116, G12S); test: HTRF resonance energy transfer assay, K-Ras G12S / SOS1 interaction; type: biochemical; conditions: HTRF assay of Example 5; read-out: IC50 against K-Ras G12S
T2 construct: made in house; host or cells: E. coli BL21 (DE3)
T2 sequence (P01116 1-188 isoform P01116-2 G12S): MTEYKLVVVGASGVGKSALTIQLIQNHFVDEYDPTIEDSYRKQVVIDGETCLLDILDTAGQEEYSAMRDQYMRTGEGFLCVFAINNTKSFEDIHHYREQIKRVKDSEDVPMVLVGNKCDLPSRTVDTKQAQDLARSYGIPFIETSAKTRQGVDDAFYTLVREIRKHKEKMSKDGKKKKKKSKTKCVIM
Procedure, shortened: as §1

[3] = target: T3, K-Ras G12V (Homo sapiens, UniProt P01116, G12V); test: HTRF resonance energy transfer assay, K-Ras G12V / SOS1 interaction; type: biochemical; conditions: HTRF assay of Example 5; read-out: IC50 against K-Ras G12V
T3 construct: made in house; host or cells: E. coli BL21 (DE3)
T3 sequence (P01116 1-188 isoform P01116-2 G12V): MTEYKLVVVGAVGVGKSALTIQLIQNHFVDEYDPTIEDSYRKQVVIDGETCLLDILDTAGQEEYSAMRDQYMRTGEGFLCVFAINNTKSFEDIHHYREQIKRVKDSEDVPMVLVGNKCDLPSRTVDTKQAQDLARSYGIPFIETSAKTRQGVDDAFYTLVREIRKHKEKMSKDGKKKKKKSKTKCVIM
Procedure, shortened: as §1

[4] = target: T4, K-Ras WT (Homo sapiens, UniProt P01116); test: HTRF resonance energy transfer assay, K-Ras WT / SOS1 interaction; type: biochemical; conditions: HTRF assay of Example 5; read-out: IC50 against K-Ras WT
T4 construct: made in house; host or cells: E. coli BL21 (DE3)
T4 sequence (P01116 1-188 isoform P01116-2): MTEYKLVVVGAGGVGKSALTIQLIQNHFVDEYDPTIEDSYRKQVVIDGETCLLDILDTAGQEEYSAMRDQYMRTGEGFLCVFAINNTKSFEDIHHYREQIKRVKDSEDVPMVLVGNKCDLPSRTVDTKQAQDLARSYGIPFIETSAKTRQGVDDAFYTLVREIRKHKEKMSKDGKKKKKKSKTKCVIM
Procedure, shortened: as §1

[5] = test system: GP2D cells; test: Ras cellular assay, growth of cells with K-Ras G12D mutation (CellTiter-Glo); type: cell-based; conditions: cell growth, Example 9, G12D mutation, read-out: IC50 against GP2D cells
[6] = test system: A549 cells; test: Ras cellular assay, growth of cells with K-Ras G12S mutation (CellTiter-Glo); type: cell-based; conditions: Homo sapiens, cell growth, Example 9, G12S mutation, read-out: IC50 against A549 cells
Procedure, shortened: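 Growth inhibition IC50 values come from four-parameter fits of CellTiter-Glo luminescence, read about 6 days after compound addition. G12S-mutant A549 cells (e.g. 800/well, RPMI-1640 + 10% heat-inactivated FBS) were plated in tissue-culture-treated or ultra-low-attachment 384-well format. Dosing began the following day with serial dilutions, e.g. 10 points, 3-fold.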

[7] = test system: SW620 cells; test: Ras cellular assay, growth of cells with K-Ras G12V mutation (CellTiter-Glo); type: cell-based; conditions: Homo sapiens, SW-620; cell growth, Example 9, G12V mutation; read-out: IC50 against SW620 cells
Procedure, shortened: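 IC50 values came from a four-parameter fit of CellTiter-Glo viability, read roughly 6 days after dosing with e.g. a 10-point threefold dilution series. G12V-mutant SW620 cells (e.g. 800 per well) had been plated the previous day in RPMI-1640/10% heat-inactivated FBS, on tissue culture-treated or ultra-low attachment plates.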

T1 sequence (P01116 1-188 isoform P01116-2 G12D): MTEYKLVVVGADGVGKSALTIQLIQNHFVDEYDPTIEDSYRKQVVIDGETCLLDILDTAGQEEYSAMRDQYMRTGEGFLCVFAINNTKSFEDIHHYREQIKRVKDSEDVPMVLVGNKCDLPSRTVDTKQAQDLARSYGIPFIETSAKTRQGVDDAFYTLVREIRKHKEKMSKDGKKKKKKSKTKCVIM

Structure (SMILES)	IC50 [1]	IC50 [2]	IC50 [3]	IC50 [4]	IC50 [5]	IC50 [6]	IC50 [7]
N#Cc1c(N)sc2c(F)ccc(-c3c(Cl)c4c5c(nc(OC[C@@]67CCCN6C[C@H](F)C7)nc5c3F)N(C3CC(NC(=O)C(F)F)C3)CCO4)c12 (stereo partly drawn) [Compound 612, N-(3-(9-(2-amino-3-cyano-7-fluorobenzo[b]thiophen-4-yl)-8-chloro-10-fluoro-2-(((2R,7aS)-2-fluorotetrahydro-1H-pyrrolizin-7a(5H)-yl)methoxy)-5,6-dihydro-4H-[1,4]oxazepino[5,6,7-de]quinazolin-4-yl)cyclobutyl)-2,2-difluoroacetamide]	< 100 nM	< 100 nM	< 100 nM	< 100 nM	< 500 nM	< 5000 nM	< 5000 nM
CN(CCN1CCOc2c(Cl)c(-c3ccc(F)c4sc(N)c(C#N)c34)c(F)c3nc(OC[C@@]45CCCN4C[C@H](F)C5)nc1c23)C(=O)[C@@H]1N[C@H]1C1CC1 [Compound 613, (2R,3S)-N-(2-(9-(2-amino-3-cyano-7-fluorobenzo[b]thiophen-4-yl)-8-chloro-10-fluoro-2-(((2R,7aS)-2-fluorotetrahydro-1H-pyrrolizin-7a(5H)-yl)methoxy)-5,6-dihydro-4H-[1,4]oxazepino[5,6,7-de]quinazolin-4-yl)ethyl)-3-cyclopropyl-N-methylaziridine-2-carboxamide]	< 100 nM	< 100 nM	< 100 nM	< 100 nM	< 500 nM	< 5000 nM	< 5000 nM
N#Cc1c(N)sc2c(F)ccc(-c3c(Cl)c4c5c(nc(OC[C@@]67CCCN6C[C@H](F)C7)nc5c3F)N([C@@H]3CCOC3)CCO4)c12 [Compound 617, 2-amino-4-(8-chloro-10-fluoro-2-(((2R,7aS)-2-fluorotetrahydro-1H-pyrrolizin-7a(5H)-yl)methoxy)-4-((R)-tetrahydrofuran-3-yl)-5,6-dihydro-4H-[1,4]oxazepino[5,6,7-de]quinazolin-9-yl)-7-fluorobenzo[b]thiophene-3-carbonitrile]	< 100 nM	< 100 nM	< 100 nM	< 100 nM	< 500 nM	< 5000 nM	< 5000 nM
C[C@H](Oc1nc2c3c(c(Cl)c(-c4ccc(F)c5sc(N)c(C#N)c45)c(F)c3n1)OCCN2[C@@H]1CCN(C=O)C1)[C@@H]1CCCN1C [Compound 621, 2-amino-4-(8-chloro-10-fluoro-4-((R)-1-formylpyrrolidin-3-yl)-2-((S)-1-((S)-1-methylpyrrolidin-2-yl)ethoxy)-5,6-dihydro-4H-[1,4]oxazepino[5,6,7-de]quinazolin-9-yl)-7-fluorobenzo[b]thiophene-3-carbonitrile]	< 100 nM	< 100 nM	< 100 nM	< 100 nM	< 500 nM	< 5000 nM	< 5000 nM
CN1CCC(N2CCOc3c(Cl)c(-c4ccc(F)c5sc(N)c(C#N)c45)c(F)c4nc(OC[C@@]56CCCN5C[C@H](F)C6)nc2c34)C1=O (stereo partly drawn) [Compound 624, 2-amino-4-(8-chloro-10-fluoro-2-(((2R,7aS)-2-fluorotetrahydro-1H-pyrrolizin-7a(5H)-yl)methoxy)-4-(1-methyl-2-oxopyrrolidin-3-yl)-5,6-dihydro-4H-[1,4]oxazepino[5,6,7-de]quinazolin-9-yl)-7-fluorobenzo[b]thiophene-3-carbonitrile]	< 100 nM	< 100 nM	< 100 nM	< 100 nM	< 500 nM	< 5000 nM	< 5000 nM
N#Cc1c(N)sc2c(F)ccc(-c3c(Cl)c4c5c(nc(OC[C@@]67CCCN6C[C@H](F)C7)nc5c3F)N(C3CCOC3)CC(CF)O4)c12 (stereo partly drawn) [Compound 628, 2-amino-4-(8-chloro-10-fluoro-6-(fluoromethyl)-2-(((2R,7aS)-2-fluorotetrahydro-1H-pyrrolizin-7a(5H)-yl)methoxy)-4-(tetrahydrofuran-3-yl)-5,6-dihydro-4H-[1,4]oxazepino[5,6,7-de]quinazolin-9-yl)-7-fluorobenzo[b]thiophene-3-carbonitrile]	< 100 nM	< 100 nM	< 100 nM	< 100 nM	< 500 nM	< 5000 nM	< 5000 nM
CNC(=O)C1CCC(N2CCOc3c(Cl)c(-c4ccc(F)c5sc(N)c(C#N)c45)c(F)c4nc(OC[C@@]56CCCN5C[C@H](F)C6)nc2c34)C1 (stereo partly drawn) [Compound 633, 3-(9-(2-amino-3-cyano-7-fluorobenzo[b]thiophen-4-yl)-8-chloro-10-fluoro-2-(((2R,7aS)-2-fluorotetrahydro-1H-pyrrolizin-7a(5H)-yl)methoxy)-5,6-dihydro-4H-[1,4]oxazepino[5,6,7-de]quinazolin-4-yl)-N-methylcyclopentane-1-carboxamide]	< 100 nM	< 100 nM	< 100 nM	< 100 nM	< 500 nM	< 5000 nM	< 5000 nM
Cn1ncc(C#N)c1CN1CCOc2c(Cl)c(-c3ccc(F)c4sc(N)c(C#N)c34)c(F)c3nc(OC[C@@]45CCCN4C[C@H](F)C5)nc1c23 [Compound 641, 5-((9-(2-amino-3-cyano-7-fluorobenzo[b]thiophen-4-yl)-8-chloro-10-fluoro-2-(((2R,7aS)-2-fluorotetrahydro-1H-pyrrolizin-7a(5H)-yl)methoxy)-5,6-dihydro-4H-[1,4]oxazepino[5,6,7-de]quinazolin-4-yl)methyl)-1-methyl-1H-pyrazole-4-carbonitrile]	< 100 nM	< 100 nM	< 100 nM	< 100 nM	< 500 nM	< 5000 nM	< 5000 nM
N#CCCN1CCOc2c(Cl)c(-c3ccc(F)c4sc(N)c(C#N)c34)c(F)c3nc(OC[C@@]45CCCN4C[C@H](F)C5)nc1c23 [Compound 648, 2-amino-4-(8-chloro-4-(2-cyanoethyl)-10-fluoro-2-(((2R,7aS)-2-fluorotetrahydro-1H-pyrrolizin-7a(5H)-yl)methoxy)-5,6-dihydro-4H-[1,4]oxazepino[5,6,7-de]quinazolin-9-yl)-7-fluorobenzo[b]thiophene-3-carbonitrile]	< 100 nM	< 100 nM	< 100 nM	< 100 nM	< 500 nM	< 5000 nM	< 5000 nM
N#Cc1c(N)sc2c(F)ccc(-c3c(Cl)c4c5c(nc(OC[C@@]67CCCN6C[C@H](F)C7)nc5c3F)N(C3CCN(C(=O)C(F)F)C3)CCO4)c12 (stereo partly drawn) [Compound 649, 2-amino-4-(8-chloro-4-(1-(2,2-difluoroacetyl)pyrrolidin-3-yl)-10-fluoro-2-(((2R,7aS)-2-fluorotetrahydro-1H-pyrrolizin-7a(5H)-yl)methoxy)-5,6-dihydro-4H-[1,4]oxazepino[5,6,7-de]quinazolin-9-yl)-7-fluorobenzo[b]thiophene-3-carbonitrile]	< 100 nM	< 100 nM	< 100 nM	< 100 nM	< 500 nM	< 5000 nM	< 5000 nM
N#Cc1c(N)sc2c(F)ccc(-c3c(Cl)c4c5c(nc(OC[C@@]67CCCN6C[C@H](F)C7)nc5c3F)N(C3C5CC3N(C=O)C5)CCO4)c12 (stereo partly drawn) [Compound 654, 2-amino-4-(8-chloro-10-fluoro-2-(((2R,7aS)-2-fluorotetrahydro-1H-pyrrolizin-7a(5H)-yl)methoxy)-4-(2-formyl-2-azabicyclo[2.1.1]hexan-5-yl)-5,6-dihydro-4H-[1,4]oxazepino[5,6,7-de]quinazolin-9-yl)-7-fluorobenzo[b]thiophene-3-carbonitrile]	< 100 nM	< 100 nM	< 100 nM	< 100 nM	< 500 nM	< 5000 nM	< 5000 nM
C#Cc1c(F)ccc2cc(O)cc(-c3nc4c5c(nc(OC[C@@]67CCCN6C[C@H](F)C7)nc5c3F)N(C3CCCOC3)CCO4)c12 (stereo partly drawn) [Compound 661, 5-ethynyl-6-fluoro-4-(4-fluoro-2-(((2R,7aS)-2-fluorotetrahydro-1H-pyrrolizin-7a(5H)-yl)methoxy)-10-(tetrahydro-2H-pyran-3-yl)-9,10-dihydro-8H-7-oxa-1,3,6,10-tetraazacyclohepta[de]naphthalen-5-yl)naphthalen-2-ol]	< 100 nM	< 100 nM	< 100 nM	< 100 nM	< 500 nM	< 5000 nM	< 5000 nM
